Earlier results as cited in patent US6642211B2 (Wisconsin Alumni Research Foundation, priority 2001, dated 2003).

Key:
[1] = test system: high grade gliomas and malignant melanoma
[2] = test system: human tumor xenografts, including malignant glioma; conditions: wide variety of human tumor xenografts
[3] = test system: recurrent malignant glioma
[4] = prolonged infusions of up to 30 days, patients with leukemia

| Structure (SMILES) | dose-limiting toxicity ([1]; human, in vivo) | clinical efficacy ([1]; treatment of high grade gliomas and malignant melanoma) | cell killing in vitro (neoplastic cells) | tumor regression [2] | anti-cancer activity (leukemia; [4]) | myelotoxicity (leukemia; [4]) | efficacy (leukemia; shorter infusions of high dose thymidine) | protection against carboplatin myelotoxicity ([3]; Phase I) | effect on pharmacokinetics or protein binding of carboplatin ([3]; thymidine-carboplatin interaction) |
| --- | --- | --- | --- | --- | --- | --- | --- | --- | --- |
| Cn1nnc2c(C(N)=O)ncn2c1=O [Temozolamide] | related to myelosuppression | demonstrated clinical efficacy | – | – | – | – | – | – | – |
| Cc1cn([C@H]2C[C@H](O)[C@@H](CO)O2)c(=O)[nH]c1=O [Thymidine] | – | – | preferentially kills neoplastic cells | induces partial regression | anti-cancer activity | significant myelotoxicity | effective | protect against dose-limiting carboplatin myelotoxicity | not to affect |
